Assay results from patent publication US12358892B2, “Metalloenzyme inhibitors for treating cancers, Alzheimer's disease, hemochromatosis, and other disorders” (Miralogx LLC, priority 2020, dated 2025).

Experiments:
[1] = tested on: T cells; experiment: BioMAP proliferation readout, T cells; assay type: cell-based, human; conditions: 100 μM, 33 μM
From the text: (§1) The X-axis lists the quantitative protein-based biomarker readouts measured in each system. The Y-axis represents a log-transformed ratio of the biomarker readouts for the drug-treated sample (n=1) over vehicle controls (n≥6). The grey region around the Y-axis represents the 95% significance envelope generated from historical vehicle controls. Biomarker activities are annotated when two or more consecutive concentrations change in the same direction relative to vehicle controls, are outside of the significance envelope, and have at least one concentration with an effect size >20% (|log 10 ratio|>0.1). Biomarker key activities are described as modulated if these activities increase in some systems, but decrease in others. […] As summarized in Table 2 below, the compound was active with 35 annotated readouts. […]
(§2) Human primary cells in BioMAP® systems are used at early passage (passage 4 or earlier) to minimize adaptation to cell culture conditions and preserve physiological signaling responses. […] Test agents prepared in either DMSO (small molecules; final concentration ≤0.1%) or PBS (biologics) are added at the indicated concentrations 1-hr before stimulation, and remain in culture for 24-hrs or as otherwise indicated (48-hrs, MyoF system; 72-hrs, BT system (soluble readouts); 168-hrs, BT system (secreted IgG)). […]

[2] = tested on: fibroblasts; experiment: BioMAP proliferation readout, fibroblasts; assay type: cell-based, human; conditions: 100 μM
From the text: as §1, §2

## C1=NC(c2cncc(C3CCC=N3)c2)CC1 (centres unmarked) [3,5-bis(3,4-dihydro-2H-pyrrol-2-yl)pyridine]
[1]
  antiproliferative effect on T cells: antiproliferative
[2]
  antiproliferative effect on fibroblasts: antiproliferative
